Measured values published in patent US5240695A, “Use of 2-hydroxy-4-methoxybenzophenone-5-sulphonic acid or its salts for protecting the hair against environmental attacking agents, and especially against light and process for protecting the hair using the compound” (L'Oreal, priority 1988, dated 1993).

What was measured:
[1] = Suntest exposure (xenon emitter) of bleached hair, 15% extension level in the wet state; settings: 120 hours Suntest; for mean value of the 15% extension level in the wet state: no rinse
[2] = Suntest exposure (xenon emitter) of permanent-waved natural hair, 15% extension level in the wet state; settings: Example 2 styling foam (0.5 g UVINUL MS 40 in 100 g composition before aerosol packaging), no rinse, 180 hours Suntest, vs foam without UVINUL MS 40
Experimental: Permanent-waved natural hair receives an application of this foam and then, without this being followed by a rinse, is subjected to 180 hours' exposure to the Suntest, as described in Example 1.

COc1cc(O)c(C(=O)c2ccccc2)cc1S(=O)(=O)O [UVINUL MS 40, 2-hydroxy-4-methoxybenzophenone-5-sulphonic acid]
mean values of the 15% extension level in the wet state ([1]; Example 1 shampoo (1 g/100 g UVINUL MS 40), washed five times, vs shampoo base without UVINUL MS 40): substantial improvement | mean value of the 15% extension level in the wet state ([1]; Example 3 styling gel (0.3 g/100 g UVINUL MS 40), three applications, vs gel without UVINUL MS 40): significant improvement | mean value of the 15% extension level in the wet state ([1]; Example 4 styling spray (1 g/100 g UVINUL MS 40), one application, vs spray without UVINUL MS 40): improved very appreciably | mean value of the 15% extension level in the wet state [2]: significant improvement
